{"source": "BindingDB's records for doi:10.1021/acs.jmedchem.9b01317", "about": "(Fudan University, 2020)", "experiment": "Inhibition of RIPK3 in human HT-29 cells assessed as reduction in TSZ-induced necroptosis by Cell Titer Glo assay", "data": [{"smiles": "CC(=O)O[C@@H]1CCC(C)(C)[C@H]2C[C@@H](O)C3=C[C@@H](CCC(=O)[C@@]21C)[C@H](C)C3=O", "values": [{"measurement": "IC50", "value": 200, "unit": "nM"}]}]}
